Columns and labels:
[1] = format: in vitro ADME, mice, rats, monkeys, humans; settings: mouse, rat, monkey, human
Procedure: In vitro metabolism of ALC-0315 and ALC-0159 was evaluated in blood, liver microsomes, S9 fractions, and hepatocytes from mice, rats, monkeys, and humans. In vivo metabolism was examined in rat plasma, urine, faeces, and liver samples from the PK study. […] ALC-0315 and ALC-0159 are apparently metabolised by hydrolytic metabolism of the ester and amide functionalities, respectively, and this hydrolytic metabolism is observed across the species evaluated.

[2] = format: in vivo, rats; settings: rat
Procedure: A single dose PK study of ALC-0315 and […] following intravenous (IV) bolus injection of a nanoparticle formulation in rats was conducted to assess the PK and metabolism of lipid excipients ALC-0315 and ALC-0159.

[3] = biological target: human ACE2 peptidase domain (amino acids 1-615 of human ACE2 with C-terminal His-10 and Avi tags) (human) (UniProt Q9BYF1)
Chain of UniProt Q9BYF1 (Q9BYF1 18-615 limits assumed): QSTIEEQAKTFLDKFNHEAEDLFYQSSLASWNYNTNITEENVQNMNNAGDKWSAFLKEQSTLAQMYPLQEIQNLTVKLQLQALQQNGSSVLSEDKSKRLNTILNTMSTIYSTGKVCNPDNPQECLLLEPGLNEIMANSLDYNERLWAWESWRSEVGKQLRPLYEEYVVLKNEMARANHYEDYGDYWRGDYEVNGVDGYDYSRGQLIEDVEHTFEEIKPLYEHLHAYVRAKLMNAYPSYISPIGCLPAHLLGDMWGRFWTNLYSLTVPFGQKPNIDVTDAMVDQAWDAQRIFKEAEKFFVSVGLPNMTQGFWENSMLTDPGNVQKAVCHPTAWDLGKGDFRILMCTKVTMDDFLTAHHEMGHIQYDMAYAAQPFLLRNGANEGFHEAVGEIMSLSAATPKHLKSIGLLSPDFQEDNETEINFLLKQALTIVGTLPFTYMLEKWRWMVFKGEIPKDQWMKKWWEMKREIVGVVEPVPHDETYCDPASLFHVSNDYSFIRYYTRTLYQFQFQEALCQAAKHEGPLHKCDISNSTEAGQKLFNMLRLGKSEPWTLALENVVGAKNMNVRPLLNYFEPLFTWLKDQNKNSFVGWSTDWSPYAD

CCCCCCCCC(CCCCCC)C(=O)OCCCCCCN(CCCCO)CCCCCCOC(=O)C(CCCCCC)CCCCCCCC (stereo not shown) [ALC-0315, ((4-hydroxybutyl)azanediyl)bis(hexane-6,1-diyl)bis(2-hexyldecanoate)]
metabolism in vitro and in vivo [1]: relatively slowly | eliminated unchanged in faeces [2]: little to no unchanged material | apparent terminal t½ in plasma and liver ([2]; IV): 140 to 190 h | drop of concentration in liver ([2]; IV, over 2 weeks): ~4 fold | drop of concentration in plasma ([2]; IV, over 2 weeks): approximately 7000 fold

RBD-foldon trimer (trimerised SARS-CoV-2 spike receptor-binding domain fused to T4 fibritin foldon, (other; other documents disagree on this pair)
Kd [3]: 5 pM | fold difference of KD against the reported KD of monomeric RBD [3]: 1000 fold

Source: patent US20240002127A1 (priority 2020, published 2024)
